Test results taken from PMC3407203, “Bisphenol A Binds to the Local Anesthetic Receptor Site to Block the Human Cardiac Sodium Channel” (PLoS ONE, 2012).

Assays:
hNav1.5 [1] = target: T1, hNav1.5 (Homo sapiens, UniProt Q14524); assay: Tonic block of hNav1.5 currents, whole-cell patch clamp in transfected HEK293 cells; format: cell-based; conditions: for Kd: test pulse −10 mV at 0.2 Hz, room temperature, read-out: Kd of tonic block (Hill fit)
T1 construct: expressed in transfected cells; host or cells: HEK293
T1 sequence (Q14524 whole entry): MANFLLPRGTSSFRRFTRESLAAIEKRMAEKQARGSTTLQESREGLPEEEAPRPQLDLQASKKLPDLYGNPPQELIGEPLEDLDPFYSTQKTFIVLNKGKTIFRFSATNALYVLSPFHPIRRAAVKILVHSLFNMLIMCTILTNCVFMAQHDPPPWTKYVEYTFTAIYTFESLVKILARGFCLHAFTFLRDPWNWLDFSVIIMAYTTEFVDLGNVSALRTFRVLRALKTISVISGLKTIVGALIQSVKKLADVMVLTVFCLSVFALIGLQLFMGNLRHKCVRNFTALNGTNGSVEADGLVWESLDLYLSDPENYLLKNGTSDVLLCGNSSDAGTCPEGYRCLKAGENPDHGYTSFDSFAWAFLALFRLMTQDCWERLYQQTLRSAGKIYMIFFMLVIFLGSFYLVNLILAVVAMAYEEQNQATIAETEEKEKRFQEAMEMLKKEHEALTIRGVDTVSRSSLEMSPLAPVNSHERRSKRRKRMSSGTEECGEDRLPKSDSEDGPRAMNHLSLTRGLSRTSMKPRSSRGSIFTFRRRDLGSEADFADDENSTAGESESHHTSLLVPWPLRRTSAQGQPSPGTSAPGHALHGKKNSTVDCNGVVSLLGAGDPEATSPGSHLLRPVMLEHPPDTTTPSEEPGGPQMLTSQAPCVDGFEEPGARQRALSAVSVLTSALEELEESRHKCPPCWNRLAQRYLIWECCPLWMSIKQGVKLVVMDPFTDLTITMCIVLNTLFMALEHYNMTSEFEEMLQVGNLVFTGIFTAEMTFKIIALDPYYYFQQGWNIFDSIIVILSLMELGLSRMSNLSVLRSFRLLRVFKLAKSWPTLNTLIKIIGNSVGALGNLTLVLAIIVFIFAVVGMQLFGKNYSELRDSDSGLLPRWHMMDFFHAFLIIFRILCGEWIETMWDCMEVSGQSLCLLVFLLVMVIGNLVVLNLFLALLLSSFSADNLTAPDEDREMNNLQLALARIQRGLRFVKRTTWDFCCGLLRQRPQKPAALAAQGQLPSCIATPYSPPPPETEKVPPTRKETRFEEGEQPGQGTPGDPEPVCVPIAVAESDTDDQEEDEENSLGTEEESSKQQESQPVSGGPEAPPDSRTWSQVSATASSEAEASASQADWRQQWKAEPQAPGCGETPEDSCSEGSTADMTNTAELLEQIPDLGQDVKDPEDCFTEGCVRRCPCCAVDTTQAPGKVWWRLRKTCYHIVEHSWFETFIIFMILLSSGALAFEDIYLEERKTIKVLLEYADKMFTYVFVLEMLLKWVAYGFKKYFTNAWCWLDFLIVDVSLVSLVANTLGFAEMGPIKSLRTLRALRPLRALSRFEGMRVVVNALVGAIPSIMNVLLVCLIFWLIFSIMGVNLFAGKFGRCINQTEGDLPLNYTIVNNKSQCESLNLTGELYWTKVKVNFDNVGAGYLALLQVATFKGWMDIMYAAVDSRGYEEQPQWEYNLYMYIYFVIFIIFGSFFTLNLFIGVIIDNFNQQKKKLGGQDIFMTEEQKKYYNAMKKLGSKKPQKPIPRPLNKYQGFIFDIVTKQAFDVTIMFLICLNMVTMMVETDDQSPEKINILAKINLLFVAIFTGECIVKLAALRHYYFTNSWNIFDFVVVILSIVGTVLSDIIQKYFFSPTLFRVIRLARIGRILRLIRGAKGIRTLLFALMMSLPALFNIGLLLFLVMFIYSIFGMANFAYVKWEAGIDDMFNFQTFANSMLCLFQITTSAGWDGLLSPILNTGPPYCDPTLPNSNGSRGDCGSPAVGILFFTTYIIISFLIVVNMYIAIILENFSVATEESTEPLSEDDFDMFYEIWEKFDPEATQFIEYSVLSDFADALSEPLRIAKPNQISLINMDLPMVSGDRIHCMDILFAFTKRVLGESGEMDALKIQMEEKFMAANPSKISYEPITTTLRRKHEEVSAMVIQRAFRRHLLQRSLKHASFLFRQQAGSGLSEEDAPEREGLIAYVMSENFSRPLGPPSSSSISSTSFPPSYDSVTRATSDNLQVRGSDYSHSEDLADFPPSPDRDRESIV
Procedure: (§1) The plasmid DNA of hNav1.5 in pTracer was used (gift from Dirk Isbrandt, Hamburg, Germany) for mutagenesis of F1760A (Qickchange XL kit, Qiagen GmbH, Hilden) and was performed according to the instructions of the manufacturer. HEK293 cells were maintained in Dulbecco’s Modified Eagle’s Medium (Invitrogen, Carlsbad, CA), supplemented with 10% fetal bovine serum, 100 U/ml penicillin and 100 µg/ml streptomycin, and incubated at 37°C with 5% CO2. […] Cells were transfected at 40–70% confluency using Nanofectin (PAA Laboratories GmbH, Pasching, Austria), according to manufacturer’s instructions, with 1 µg of hNav1.5 or the F1760A mutant of hNav1.5 and 0.5 µg EGFP, and distributed onto several 35 mm dishes on the following day. […] Only cells with robust green fluorescence were included in the analysis.
Whole-cell patch-clamp experiments were performed at room temperature using an Axopatch 200A operated by Clampex 9.2 software (Axon Instruments, Molecular Devices, USA) and 1–2 MΩ glass electrodes (WPI Inc, USA). […] All reagents were purchased from Sigma Chemical Company (Deisenhofen, Germany) unless otherwise noted. The tip of a constantly running gravity-driven perfusion system was positioned close to the recorded cell and drugs were applied by switching to bath solution containing the indicated concentration. […] Capacitive transients were cancelled, and series resistances (<5 MΩ) were compensated by 65–95%. Leak currents were subtracted digitally online using the P/4 procedure following the test pulses except for recordings of use dependency, where no leak correction was used. Currents were filtered at 10 kHz and sampled at 100 kHz, except for steady-state fast inactivation, where a sampling rate of 20 kHz was used.Recordings were obtained 4 min after establishing the whole-cell configuration. […] The block occurring 15 pulses after BPA or ETOH application (Ipost/Ipre = [drawing 1] ) was used as indicator for tonic block. The resulting single dose response data were fitted with a Hill function using a Levenberg-Marquard algorithm of Origin’s non linear curve fitter, where start and end were set to 0 and 1, respectively.

hNav1.5 [2] = target: T1, hNav1.5; assay: Use-dependent current decline of hNav1.5, repetitive pulsing, whole-cell patch clamp; format: cell-based; conditions: for use-dependent block: 30 µM, WT hNav1.5, Vhold −120 mV
From the text: […] Current responses were normalized to the first recorded pulse and the available currents at the 30th pulses were compared.

F1760A mutant of hNav1.5 [3] = target: T2, F1760A mutant of hNav1.5 (Homo sapiens, UniProt Q14524, F1760A); assay: Use-dependent current decline of F1760A mutant hNav1.5, repetitive pulsing, whole-cell patch clamp; format: cell-based
T2 construct: expressed in transfected cells; host or cells: HEK293
T2 sequence (Q14524 whole entry F1760A): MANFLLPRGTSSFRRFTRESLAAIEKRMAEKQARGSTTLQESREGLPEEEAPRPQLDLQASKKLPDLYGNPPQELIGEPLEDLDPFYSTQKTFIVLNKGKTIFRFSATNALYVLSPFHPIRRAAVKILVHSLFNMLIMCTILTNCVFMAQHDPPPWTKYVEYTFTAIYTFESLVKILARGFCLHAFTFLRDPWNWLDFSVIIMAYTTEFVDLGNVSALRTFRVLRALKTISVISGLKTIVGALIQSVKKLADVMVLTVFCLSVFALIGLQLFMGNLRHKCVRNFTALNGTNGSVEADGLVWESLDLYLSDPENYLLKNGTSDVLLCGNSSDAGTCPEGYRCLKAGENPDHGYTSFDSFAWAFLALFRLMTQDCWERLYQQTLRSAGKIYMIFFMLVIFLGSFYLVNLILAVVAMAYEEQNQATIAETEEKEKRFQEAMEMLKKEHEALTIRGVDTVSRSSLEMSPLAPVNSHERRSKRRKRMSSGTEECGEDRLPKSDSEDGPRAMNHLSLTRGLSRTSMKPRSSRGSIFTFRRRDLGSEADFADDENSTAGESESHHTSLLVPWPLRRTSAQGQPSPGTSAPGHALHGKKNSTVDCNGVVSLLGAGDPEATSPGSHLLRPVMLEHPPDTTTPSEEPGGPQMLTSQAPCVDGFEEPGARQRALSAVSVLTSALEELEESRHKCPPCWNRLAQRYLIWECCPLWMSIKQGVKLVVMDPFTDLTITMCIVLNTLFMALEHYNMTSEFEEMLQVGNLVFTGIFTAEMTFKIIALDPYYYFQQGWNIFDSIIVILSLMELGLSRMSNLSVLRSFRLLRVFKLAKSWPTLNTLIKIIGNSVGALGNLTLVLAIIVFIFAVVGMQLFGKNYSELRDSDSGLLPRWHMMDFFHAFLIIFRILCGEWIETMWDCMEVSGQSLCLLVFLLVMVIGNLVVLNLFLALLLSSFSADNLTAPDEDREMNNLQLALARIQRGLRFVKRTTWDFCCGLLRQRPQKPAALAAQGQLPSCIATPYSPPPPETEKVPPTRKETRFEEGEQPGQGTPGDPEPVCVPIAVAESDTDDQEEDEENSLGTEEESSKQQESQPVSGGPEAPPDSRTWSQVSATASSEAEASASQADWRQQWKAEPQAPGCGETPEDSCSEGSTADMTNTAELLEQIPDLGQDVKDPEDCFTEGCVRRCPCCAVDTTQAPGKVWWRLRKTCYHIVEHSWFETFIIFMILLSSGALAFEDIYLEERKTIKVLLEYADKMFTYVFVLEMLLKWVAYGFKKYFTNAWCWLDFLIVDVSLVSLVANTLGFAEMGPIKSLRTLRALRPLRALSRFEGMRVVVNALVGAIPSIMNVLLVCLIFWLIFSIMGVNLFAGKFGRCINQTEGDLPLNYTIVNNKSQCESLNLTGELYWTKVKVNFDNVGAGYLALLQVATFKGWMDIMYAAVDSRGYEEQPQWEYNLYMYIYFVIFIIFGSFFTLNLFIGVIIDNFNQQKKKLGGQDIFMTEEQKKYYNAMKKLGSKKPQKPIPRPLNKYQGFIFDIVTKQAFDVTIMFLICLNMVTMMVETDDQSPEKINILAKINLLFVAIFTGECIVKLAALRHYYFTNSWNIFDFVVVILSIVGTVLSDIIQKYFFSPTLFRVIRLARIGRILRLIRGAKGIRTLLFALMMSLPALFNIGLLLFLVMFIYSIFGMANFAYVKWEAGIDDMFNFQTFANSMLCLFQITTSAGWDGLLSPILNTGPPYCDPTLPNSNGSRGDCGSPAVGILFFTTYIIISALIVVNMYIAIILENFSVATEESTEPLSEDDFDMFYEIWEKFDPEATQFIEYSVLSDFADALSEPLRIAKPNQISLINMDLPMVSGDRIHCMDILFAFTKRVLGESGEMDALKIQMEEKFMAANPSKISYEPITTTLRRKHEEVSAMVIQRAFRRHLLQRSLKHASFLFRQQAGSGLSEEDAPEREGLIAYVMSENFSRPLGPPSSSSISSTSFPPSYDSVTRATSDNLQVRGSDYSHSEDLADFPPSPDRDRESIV
Procedure: The plasmid DNA of hNav1.5 in pTracer was used (gift from Dirk Isbrandt, Hamburg, Germany) for mutagenesis of […] kit, Qiagen GmbH, Hilden) and was performed according to the instructions of the manufacturer. HEK293 cells were maintained in Dulbecco's Modified Eagle's Medium (Invitrogen, Carlsbad, CA), supplemented with 10% fetal bovine serum, 100 U/ml penicillin and 100 μg/ml streptomycin, and incubated at 37°C with 5% CO2. Briefly, HEK293 cells were plated at low density on 35 mm dishes 24 hours before transfection. […] Electrophysiology was performed 18-28 hours following transfections. Only cells with robust green fluorescence were included in the analysis.

F1760A mutant of hNav1.5 [4] = target: T2, F1760A mutant of hNav1.5; assay: Tonic block of F1760A mutant hNav1.5 currents, whole-cell patch clamp in transfected HEK293 cells; format: cell-based; conditions: Vhold −120 mV, tested every 5 s, read-out: Kd of tonic block (Hill fit)
Procedure: as §1
Whole-cell patch-clamp experiments were performed at room temperature using an Axopatch 200A operated by Clampex 9.2 software (Axon Instruments, Molecular Devices, USA) and 1–2 MΩ glass electrodes (WPI Inc, USA). […] All reagents were purchased from Sigma Chemical Company (Deisenhofen, Germany) unless otherwise noted. The tip of a constantly running gravity-driven perfusion system was positioned close to the recorded cell and drugs were applied by switching to bath solution containing the indicated concentration. […]

hNav1.5 [5] = target: T1, hNav1.5; assay: Voltage dependence of steady-state fast inactivation of hNav1.5, whole-cell patch clamp; format: cell-based
Procedure: Whole-cell patch-clamp experiments were performed at room temperature using an Axopatch 200A operated by Clampex 9.2 software (Axon Instruments, Molecular Devices, USA) and 1–2 MΩ glass electrodes (WPI Inc, USA). […] All reagents were purchased from Sigma Chemical Company (Deisenhofen, Germany) unless otherwise noted. The tip of a constantly running gravity-driven perfusion system was positioned close to the recorded cell and drugs were applied by switching to bath solution containing the indicated concentration. […] Capacitive transients were cancelled, and series resistances (<5 MΩ) were compensated by 65–95%. Leak currents were subtracted digitally online using the P/4 procedure following the test pulses except for recordings of use dependency, where no leak correction was used. […] Fitting parameters (Kd) are given as best fit ± standard error.

hNav1.5 [6] = target: T1, hNav1.5; assay: Activation and current decay of hNav1.5, whole-cell patch clamp; format: cell-based; conditions: post 100 µM BPA
Procedure: . The sodium channel conductance GNa was calculated using the following equation: […]
where INa is the amplitude of the current at the voltage Vm, and Erev is the reversal potential for sodium, which was determined for each cell individually. Activation curves were derived by plotting normalized GNa as a function of test potential and fitted using the Boltzmann equation: […]
where GNa,Max is the maximum conductance, Vhalf is the membrane potential at half-maximal activation, Vm is the membrane voltage and k is the slope factor.
Decay time constants were determined by fitting current recordings at test pulses to −10 mV for 40 ms from peak with a single exponential fit.

hNav1.5 [7] = target: T1, hNav1.5; assay: Dissociation constants for resting (Kr) and inactivated (Ki) hNav1.5 channels, whole-cell patch clamp; format: cell-based; conditions: determined with 30 µM drug; read-out: Kr, dissociation constant for resting channels
Procedure: The dissociation constant for the resting channels, Kr, of the applied drugs were determined according to [17], [18]: with [drug] being the drug concentration present and Brest being the detected block of resting channels. […] This potential was determined for each cell individually by the above described protocol for steady-state fast inactivation.

[8] = parameters: method as in PMID 12387626; conditions: cited from earlier work
[9] = cited from earlier work

Structure (SMILES)	tonic block (hNav1.5 [1]; 30 µM, WT hNav1.5)	use-dependent block (hNav1.5 [2])	tonic and use-dependent block in F1760A compared to WT (F1760A mutant of hNav1.5 [3]; 150 µM)	Kd (hNav1.5 [1]; WT hNav1.5, Vhold −90 mV)	Kd (hNav1.5 [1]; WT hNav1.5, Vhold −120 mV)	lowest concentration tested at which hNav1.5 currents were not affected (no effect level, NOEL) (hNav1.5 [1]; tonic block)	lowest concentration to have a significant effect on hNav1.5 (hNav1.5 [1]; tonic block, Fig. 1A)	Kd (F1760A mutant of hNav1.5 [4])	hyperpolarizing shift of Vhalf of steady-state fast inactivation (hNav1.5 [5]; 100 µM, n = 9)	slope factor k of steady-state fast inactivation (hNav1.5 [5]; post application of 100 µM BPA, pre 5.6±0.3)	Vhalf of steady-state fast inactivation (hNav1.5 [5]; post application of 100 µM BPA, pre −89.3±1.5 mV, n = 9)	τ of single exponential fit of current decay (hNav1.5 [6]; test pulse to −10 mV, pre 1.1±0.08 ms)	Vhalf of activation (hNav1.5 [6]; pre −32.0±2.5 mV)	Kd (hNav1.5 [7])	use-dependent current decline (hNav1.5 [2]; all frequencies tested (1 to 100 Hz), WT hNav1.5)	use-dependent block in F1760A compared to WT (F1760A mutant of hNav1.5 [3]; 30 µM)	half-life in the body [8]	mean human blood levels [9]	highest reported blood level ([9]; human)
Cc1cccc(C)c1OCC(C)N (centres unmarked) [mexiletine, reference compound]	almost absent	significant use-dependent block	reduced tonic and use-dependent block	–	–	–	–	–	–	–	–	–	–	–	–	–	–	–	–
CC(C)(c1ccc(O)cc1)c1ccc(O)cc1 [BPA, Bisphenol A]	–	significant use-dependent block	–	25.4 ± 1.3 µM	74 ± 7.6 µM	100 nM	1 µM	104 ± 6.7 µM	15.8±1.1 mV	6.5±0.2	−105.1±2.1 mV	1.13 ± 0.1 ms	−32.9±3.7 mV	58.6 ± 8 µM	enhance use-dependent current decline	robustly reduced	< 6 h	~10 nM	290 nM
